Reference: patent US20160000766A1, “HDAC INHIBITORS TO TREAT CHARCOT-MARIE-TOOTH DISEASE” (VIB VZW, priority 2010, published 2016)
“Also recorded” adds a separate entry of the source.

How the values were obtained:
[1] = test system: acetylated α-tubulin; test: Western blots of acetylated α-tubulin in sciatic nerve and spinal cord of treated mice; assay type: in vivo, mouse; conditions: daily for 21 days, TSA 10 mg per kg, tubastatin A 25 mg per kg; for acetylated α-tubulin amounts in peripheral nerves: sciatic nerve
Experimental: (§1) FIG. 8: HDAC6 inhibition rescues axonal transport defects and restores the CMT2 phenotype. Panels a and b: Axonal transport of mitochondria measured in DRG neurons isolated from ten-month-old HSPB1^S135F-expressing mice after 12 hours of treatment with TSA (0.4 μM), tubacin (2 μM), tubastatin A (1 μM) or an equivalent amount of DMSO. Total number of (Panel a) and number of moving (Panel b) mitochondria (per 200 seconds and per 100 μm) were quantified. n=20 to 30 cells isolated from three different mice for each condition. *P<0.05; **P<0.01; ***P<0.0001. Panels c and d: Western blots of sciatic nerve and spinal cord extracts from symptomatic eight-month-old HSPB1^S135F-expressing mice treated daily for three weeks with TSA (10 mg per kg body weight; Panel c) or tubastatin A (25 mg per kg body weight; Panel d) probed against acetylated tubulin. Equal loading was confirmed with α-tubulin staining. n=3. Panels e and f: Quantifications of optical density (OD) of acetylated tubulin on Western blots of sciatic nerve (Panel e) and spinal cord (Panel f) extracts of symptomatic HSPB1^S135F-expressing mice treated with TSA or tubastatin A. n=3. Panel g: Motor performance on an accelerating rotarod of HSPB1^S135F-expressing mice treated for three weeks with TSA or tubastatin A. Panels h and i: Effect of the TSA or tubastatin A treatments of HSPB1^S135F-expressing mice on the amplitudes of CMAPs (Panel h) or SNAPs (Panel i). n=3 to 6 mice per group. […]; **P<0.001; ***P<0.0001. One-way ANOVA was used to analyze the data in Panels a, b, and e through i. Data are presented as means±s.e.m.
Next, symptomatic HSPB1^S135F-expressing mice were treated for 21 days with either a nonspecific or a specific HDAC6 inhibitor.

[2] = test system: DRG neurons isolated from symptomatic HSPB1^S135F mice; test: Axonal transport of mitochondria in cultured DRG neurons treated in vitro with HDAC inhibitors; assay type: cell-based, mouse; conditions: for number of moving mitochondria / total numbers of mitochondria / effectiveness on total and moving mitochondria relative to TSA: 12 hours treatment; for number of moving mitochondria / total numbers of mitochondria: TSA 0.4 μM, tubacin 2 μM, tubastatin A 1 μM, vs DMSO; for effectiveness on total and moving mitochondria relative to TSA: FIG. 8, Panels a and b
Experimental: (§2) Panels a and b: Axonal transport of mitochondria was assessed in DRG neurons isolated from symptomatic (eight-month-old) HSPB1^S135F mice after 12 hours incubation with various concentrations (0, 0.25, 0.50 or 1.00 μM) of Tubastatin A. Panel a: Quantification of the total number of mitochondria at various concentrations of Tubastatin A. One-way ANOVA. P>0.05. Panel b: Quantification of the number of moving mitochondria at different concentrations of Tubastatin A. One-way ANOVA. * P<0.05; ** P<0.001; P<0.0001. Panel c: Quantification of the integrated density of the acetylated tubulin signal along neurites at various concentrations of Tubastatin A. n=25 to 30 cells/condition. One-way ANOVA. * P<0.05.
as §1
(§3) It has previously been shown that the intracellular distribution of specific cargoes, such as mutant HSPB1 itself, but also neurofilament and p150, was disturbed in cortical neurons transfected with HSPB1^P182L (ref. 12). In order to study effects of mutant HSPB1 on axonal transport, dorsal root ganglion (DRG) neurons from adult transgenic mice were isolated and analyzed mitochondrial transport in these neurons after two days in culture. Mitochondrial movement was visualized by loading DRG neurons with a selective mitochondrial marker (MITOTRAcKER®) and by live video imaging (FIG. 6, Panel a). Kymographs resulting from time compression of video images were used to quantify the total number of mitochondria present in the neurites and to discriminate antero- and retrogradely moving from stationary mitochondria (FIG. 6, Panel a, right-side panels).
Treatment of DRG neurons isolated from symptomatic HSPB1^[…]-expressing mice with TSA, tubacin or tubastatin A increased total numbers of mitochondria FIG. 8, Panel a) and restored the number of moving mitochondria (FIG. 8, Panel b).

[3] = test system: symptomatic HSPB1^S135F-expressing mice; test: Innervation level of the gastrocnemius muscle (neuromuscular junctions) in treated mice; assay type: in vivo, mouse; conditions: treated for three weeks; eight-month-old mice
Experimental: (§4) FIG. 9: TSA or tubastatin A treatment leads to muscle reinnervation and rescues axonal transport defects. Panels a and b: Effect of vehicle (DMSO), TSA or tubastatin A treatment on the innervation level of the gastrocnemius muscle in symptomatic, eight-month-old HSPB1^S135F-expressing mice. The number of visible neuromuscular junctions (NMJs) per axon in each field of view (Panel a) and the relative quantity of denervated neuromuscular junctions (Panel b) were determined after staining gastrocnemius muscle with antibodies against α-bungarotoxin and neurofilament heavy chain. n=2 or 3 mice per condition. ***P<0.0001. Panels c and d: Axonal transport of mitochondria measured in cultured DRG neurons isolated from symptomatic HSPB1^S135F-expressing mice after three weeks of treatment with TSA or tubastatin A. Total number (Panel c) and number of moving mitochondria (Panel d) were quantified (per 200 seconds and 100 μm). n=20 to 25 cells isolated from three different mice in each condition. *P<0.05; ***P<0.0001. One-way ANOVA was used to analyze the data. Tukey's HSD test was used for post hoc analysis in Panels a through d. Data are presented as means±s.e.m.
(§5) It was also observed that the loss of acetylcholine-receptor clusters at the end plates in gastrocnemius muscle was restored (FIG. 9, Panel a) and that the level of denervation of the remaining neuromuscular junctions was decreased (FIG. 9, Panel b). These observations indicate that increasing acetylated α-tubulin abundance in peripheral nerves leads to re-innervation of muscles.

[4] = test system: symptomatic HSPB1^S135F-expressing mice; test: Motor performance on accelerating rotarod of treated HSPB1^S135F-expressing mice; assay type: in vivo, mouse; conditions: for motor performance (accelerating rotarod): treated for three weeks, TSA 10 mg per kg, tubastatin A 25 mg per kg; for CMT2 phenotype at the behavioral and electrophysiological levels: treatment of mutant HSPB1 mice (Example 9)
Experimental: as §1
Next, general motor performance was assessed using an accelerating rotarod. All mice could stay on the rotarod (300 seconds) until the age of six months. From that age on, both mutant HSPB1 lines started to fail on the rotarod test and a progressive reduction in performance was observed over time (P<0.0001; FIG. 1, Panel c).
as §5

[5] = test system: symptomatic HSPB1^S135F-expressing mice; test: Nerve conduction studies (CMAP and SNAP amplitudes) in treated mice; assay type: in vivo, mouse; conditions: treated for three weeks; TSA 10 mg per kg, tubastatin A 25 mg per kg
Experimental: as §1
Nerve conduction studies are routinely done on CMT patients to discriminate demyelinating (type 1) from axonal (type 2) forms, as well as to assess whether patients show either a mixed sensorimotor (CMT2) or a pure motor neuropathy (distal HMN). Therefore, nerve conduction studies were performed on transgenic HSPB1 mice using sub-dermal electrodes, either at the level of the gastrocnemius muscle to measure compound muscle action potentials (CMAPs), or in the distal end of the tail to record sensory nerve action potentials (SNAPs). […] The decrease in CMAP amplitudes in function of age was more pronounced in HSPB1^P182L compared to HSPB1^S135F mice as assessed by the slopes (slopeS135F=−4.66±0.32; slopeP182L=−6.23±0.93; P=0.004; FIG. 4, Panel c). CMAP latencies were unaffected, confirming the axonal nature of the motor neuropathy in both mutant HSPB1 lines (FIG. 4, Panel d).
It was also observed that the loss of acetylcholine-receptor clusters at the end plates in gastrocnemius muscle was restored (FIG. 9, Panel a) and that the level of denervation of the remaining neuromuscular junctions was decreased (FIG. 9, Panel b). […]

[6] = test system: DRG neurons isolated from symptomatic HSPB1^S135F-expressing mice; test: Ex vivo axonal transport of mitochondria in DRG neurons isolated from treated mice; set-up: species or system mouse; conditions: after three weeks of in vivo treatment
Experimental: as §4, §3
Finally, we measured ex vivo axonal transport in DRG neurons isolated from treated mice.

[7] = test system: acetylated tubulin; test: Acetylated tubulin signal along neurites of cultured DRG neurons; assay type: cell-based, mouse; conditions: 12 hours incubation; 0, 0.25, 0.50 or 1.00 μM
Experimental: as §2

Row | SMILES | acetylated α-tubulin amounts in spinal cord [1] | overall α-tubulin abundance [1] | acetylated α-tubulin amounts in peripheral nerves [1] | number of moving mitochondria [2] | total numbers of mitochondria [2] | level of denervation of the remaining neuromuscular junctions [3] | loss of acetylcholine-receptor clusters at the end plates in gastrocnemius muscle [3] | motor performance (accelerating rotarod) [4] | CMT2 phenotype at the behavioral and electrophysiological levels [4] | CMAP amplitudes [5] | SNAP amplitudes [5] | number of moving mitochondria (ex vivo) [6] | effectiveness on total and moving mitochondria relative to TSA [2] | axonal transport of mitochondria, dose dependence ([2]; 12 hours incubation, 0, 0.25, 0.50 or 1.00 μM, eight-month-old HSPB1^S135F mice) | acetyl-tubulin levels in vitro (integrated density along neurites) [7] | mitochondrial motility, overall rescue and comparison with TSA (ex vivo) [6] | total number of mitochondria (ex vivo) [6]
1 | CC(/C=C/C(=O)NO)=C\[C@@H](C)C(=O)c1ccc(N(C)C)cc1 [TSA, Trichostatin A] | also increased | did not affect | significant increase | restored | increased | decreased | restored | significantly increased | partially restored | increased | increased | increased significantly |  |  |  |  | 
2 | O=C(CCCCCCC(=O)Nc1ccc([C@H]2O[C@@H](CSc3nc(-c4ccccc4)c(-c4ccccc4)o3)C[C@@H](c3ccc(CO)cc3)O2)cc1)NO [tubacin] |  |  |  | restored | increased |  |  |  |  |  |  |  | more effective compared to TSA |  |  |  | 
3 | CN1CCc2c(c3ccccc3n2Cc2ccc(C(=O)NO)cc2)C1 [tubastatin A] |  | did not affect | significant increase | restored | increased | decreased | restored | significantly increased | partially restored | increased | increased | increased significantly | more effective compared to TSA | dose-dependently rescued | increased | more effective than TSA; also recorded: complete rescue | increased
